According to patent US20230066011A1, “PYRROLOPYRIMIDINE DERIVATIVE, AND PHARMACEUTICAL COMPOSITION FOR PREVENTING OR TREATING PROTEIN KINASE-RELATED DISEASE COMPRISING SAME AS ACTIVE INGREDIENT” (VORONOI CO., LTD., priority 2019, published 2023):

What was measured:
[1] = biological target: T1, human GST-DYRK1A (Homo sapiens, UniProt Q13627); assay: GST-DYRK1A enzyme inhibition, ADP-Glo kinase assay; assay type: biochemical; details: ATP 10 μM, GST-DYRK1A full length, read-out: DYRK1 IC50
T1 construct: purified human GST-DYRK1A (full length, Thermo Scientifics) enzyme; purchased Thermo Scientifics
Procedure, shortened: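 Full-length enzyme (10 ng) was incubated with 10 μM ATP and a specific substrate for 1 h at 25 °C in 40 mM Tris-HCl pH 7.4, 20 mM MgCl2, 0.5 mg/mL BSA, 50 μM DTT. Luminescence was read against a solvent control, and IC50 values were derived from 3 data sets.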

[2] = biological target: T2, human GST-CLK1 (Homo sapiens, UniProt P49759); assay: GST-CLK1 enzyme inhibition, ADP-Glo kinase assay; assay type: biochemical; details: ATP 10 μM, GST-CLK1 129-end
T2 construct: purified human GST-CLK1 (129-end, SignalChem) enzyme; purchased SignalChem
Procedure, shortened: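 ADP-Glo luminescence read-out, relative to untreated solvent control, gave IC50 (nM) from triplicate data sets. Reactions ran an hour at 25° C with 3 ng GST-CLK1 (residues 129-end), 10 μM ATP and specific substrate in Tris-HCl pH 7.4 buffer with MgCl2, BSA and DTT.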

[3] = system: MDA-MB-231 cell line; assay: Inhibition of proliferation of MDA-MB-231 cancer cells (Cell Titer-Glo); assay type: cell-based; details: Homo sapiens, 72 hours
Procedure, shortened: (§1)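 2,000 cells/well, DMEM or RPMI; 11-pt 3-fold dilution, final 10.000000–0.000169 μM; 72 h. CellTiter-Glo, 10 min RT, luminescence read; GI50 fitted.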

[4] = system: MDA-MB-468 cell line; assay: Inhibition of proliferation of MDA-MB-468 cancer cells (Cell Titer-Glo); assay type: cell-based; details: Homo sapiens, MDA-MB-468, 72 hours
Procedure, shortened: as §1

[5] = biological target: T3, TTK (Homo sapiens, UniProt P33981); assay: TTK enzyme inhibition, ADP-Glo kinase assay; assay type: biochemical; design: purchased SignalChem T20-10G; details: ATP 5 μM
T3 sequence (P33981 1-857): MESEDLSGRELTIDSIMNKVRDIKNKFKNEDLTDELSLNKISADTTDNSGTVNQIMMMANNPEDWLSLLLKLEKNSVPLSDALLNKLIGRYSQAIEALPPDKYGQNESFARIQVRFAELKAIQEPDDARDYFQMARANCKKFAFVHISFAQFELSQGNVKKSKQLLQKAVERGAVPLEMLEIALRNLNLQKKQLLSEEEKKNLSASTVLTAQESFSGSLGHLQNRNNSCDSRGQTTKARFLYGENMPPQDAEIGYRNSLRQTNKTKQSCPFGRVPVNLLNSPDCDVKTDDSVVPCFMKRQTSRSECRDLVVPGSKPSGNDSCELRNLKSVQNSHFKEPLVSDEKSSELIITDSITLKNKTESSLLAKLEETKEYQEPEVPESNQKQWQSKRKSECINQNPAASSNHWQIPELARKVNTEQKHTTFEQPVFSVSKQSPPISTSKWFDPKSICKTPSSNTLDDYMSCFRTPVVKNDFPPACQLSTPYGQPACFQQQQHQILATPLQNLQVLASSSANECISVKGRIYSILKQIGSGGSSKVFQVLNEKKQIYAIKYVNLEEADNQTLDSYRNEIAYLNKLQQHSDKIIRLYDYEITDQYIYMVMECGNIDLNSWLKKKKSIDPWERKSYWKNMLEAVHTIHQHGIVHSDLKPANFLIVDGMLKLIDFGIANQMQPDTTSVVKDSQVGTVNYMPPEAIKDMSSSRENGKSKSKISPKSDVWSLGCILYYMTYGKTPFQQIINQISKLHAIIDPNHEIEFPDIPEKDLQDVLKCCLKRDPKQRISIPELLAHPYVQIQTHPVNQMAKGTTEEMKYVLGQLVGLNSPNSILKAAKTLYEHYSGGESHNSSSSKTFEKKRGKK
Description: To evaluate an inhibitory activity of the compound according to the present invention against LRRK2, LRRK2 (G2019S), DYRK1, CLK1, and TTK kinases, experiments were performed as follows.
Each of the Example compounds was reacted with a purified human TTK (SignalChem #T20-10G) enzyme to evaluate an ability to inhibit an enzyme using a method as described below. A composition of 40 mM Tris-HCl (pH 7.4), 20 mM MgCl2, 0.1 mg/mL BSA (a 5× kinase buffer, SignalChem #K03-09), and 50 μM DTT (SignalChem #D86-09B) was used as a reaction buffer, and all reactions of test substances were performed in the reaction buffer. Each of the compounds was diluted […] from a 10 mM DMSO stock using a serial dilution method, and enzyme activities were measured at final compound concentrations of 1, 0.333333, 0.111111, 0.037037, 0.012346, 0.004115, 0.001372, 0.000457, 0.000152, 0.000051, and 0.000017 μM. In the test, purified ATP (5 μM, Promega #V6930) and an MBP enzyme substrate (0.2 μg, SignalChem M42-51N) were reacted with a human TTK (7.5 ng) enzyme at 25° C. for 4 hours, and the enzyme activities were then determined using an in vitro ADP-Glo™ kinase assay (Promega #V6930). An enzyme-activity reaction solution, an ADP-Glo reaction solution, and an enzyme-ability detection solution were reacted at a ratio of 2:2:1 to measure a degree of inhibition of the enzyme activity with luminescence. The degree of inhibition of the enzyme activity according to the treatment concentration of each of the compounds was calculated based on the fluorescence of the enzyme activity of the solvent control which was not treated with the compound. In this case, the concentration of each of the compounds inhibiting 50% of the enzyme activity was determined to be an IC50 (nM) value, and calculated using Prism (Version 8.2 GraphPad) software.

T2 sequence (P49759 129-484 limits assumed): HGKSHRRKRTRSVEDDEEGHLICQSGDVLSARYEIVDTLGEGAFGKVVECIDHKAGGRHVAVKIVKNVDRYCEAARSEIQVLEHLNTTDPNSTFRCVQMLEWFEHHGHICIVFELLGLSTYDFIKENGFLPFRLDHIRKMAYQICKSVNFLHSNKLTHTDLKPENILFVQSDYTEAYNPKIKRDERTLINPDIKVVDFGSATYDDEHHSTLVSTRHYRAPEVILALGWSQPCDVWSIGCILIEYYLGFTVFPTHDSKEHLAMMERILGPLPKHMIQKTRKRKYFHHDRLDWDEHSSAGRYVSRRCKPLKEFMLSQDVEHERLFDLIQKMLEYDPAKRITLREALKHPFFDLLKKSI

Row | IC50 [1] [µM] | IC50 [2] [µM] | GI50 [3] [nM] | GI50 [4] [nM] | IC50 [5] [µM] | Compound
1 | 0.301 to 1 | 0.101 to 0.3 | < 50 | 51 to 100 | < 0.1 | N#Cc1c[nH]c2nc(Nc3ccc(C(=O)N4CCN(C5COC5)CC4)c4c3OCCO4)nc(NC3CCCCC3)c12 [Example 144, 4-(cyclohexylamino)-2-((8-(4-(oxetan-3-yl)piperazine-1-carbonyl)-2,3-dihydrobenzo[b][1,4]dioxin-5-yl)amino)-7H-pyrrolo[2,3-d]pyrimidine-5-carbonitrile]
2 | 0.301 to 1 | 0.301 to 1 | < 50 | 51 to 100 | < 0.1 | N#Cc1c[nH]c2nc(Nc3ccc(C(=O)N4CCCC4)c4c3OCCO4)nc(NC3CCCCC3)c12 [Example 149, 4-(cyclohexylamino)-2-((8-(pyrrolidine-1-carbonyl)-2,3-dihydrobenzo[b][1,4]dioxin-5-yl)amino)-7H-pyrrolo[2,3-d]pyrimidine-5-carbonitrile]
3 | 0.301 to 1 | < 0.1 | 51 to 100 | 51 to 100 | < 0.1 | CN1CCC(NC(=O)c2ccc(Nc3nc(NC4CCCCC4)c4c(C#N)c[nH]c4n3)c3c2OCCO3)CC1 [Example 143, 8-((5-cyano-4-(cyclohexylamino)-7H-pyrrolo[2,3-d]pyrimidin-2-yl)amino)-N-(1-methylpiperidin-4-yl)-2,3-dihydrobenzo[b][1,4]dioxin-5-carboxamide]
4 | 0.301 to 1 | 0.101 to 0.3 | 101 to 300 | 51 to 100 | < 0.1 | CCN1CCP(=O)(c2ccc(Nc3nc(NC4CCCCC4)c4c(C#N)c[nH]c4n3)c(OC)c2)CC1 [Example 151, 4-(cyclohexylamino)-2-((4-(1-ethyl-4-oxido-1,4-azaphosphinan-4-yl)-2-methoxyphenyl)amino)-7H-pyrrolo[2,3-d]pyrimidine-5-carbonitrile]
5 | 0.301 to 1 | 0.301 to 1 | 101 to 300 | 101 to 300 | < 0.1 | N#Cc1c[nH]c2nc(Nc3ccc(C(=O)N4CCN(C5CC5)CC4)c4c3OCCO4)nc(NC3CCCC3)c12 [Example 148, 4-(cyclopentylamino)-2-((8-(4-cyclopropylpiperazine-1-carbonyl)-2,3-dihydrobenzo[b][1,4]dioxin-5-yl)amino)-7H-pyrrolo[2,3-d]pyrimidine-5-carbonitrile]
6 | 0.101 to 0.3 | < 0.1 | 51 to 100 | 51 to 100 | < 0.1 | N#Cc1c[nH]c2nc(Nc3ccc(C(=O)N4CCOCC4)c4c3OCO4)nc(NC3CCCC3)c12 [Example 152, 4-(cyclopentylamino)-2-((7-(morpholine-4-carbonyl)benzo[d][1,3]dioxol-4-yl)amino)-7H-pyrrolo[2,3-d]pyrimidine-5-carbonitrile]
7 | 0.301 to 1 | 0.301 to 1 | 51 to 100 | 51 to 100 | < 0.1 | N#Cc1c[nH]c2nc(Nc3ccc(C(=O)N4CCOCC4)c4c3OCO4)nc(NC3CCCCC3)c12 [Example 150, 4-(cyclohexylamino)-2-((7-(morpholine-4-carbonyl)benzo[d][1,3]dioxol-4-yl)amino)-7H-pyrrolo[2,3-d]pyrimidine-5-carbonitrile]
8 | 0.301 to 1 | 0.301 to 1 | 51 to 100 | 51 to 100 | < 0.1 | N#Cc1c[nH]c2nc(Nc3ccc(C(=O)N4CCN(C5CC5)CC4)c4c3OCCO4)nc(NC3CCCCC3)c12 [Example 145]
9 | 0.301 to 1 | < 0.1 | 101 to 300 | 51 to 100 | < 0.1 | N#Cc1c[nH]c2nc(Nc3ccc(C(=O)N4CCN(C5COC5)CC4)c4c3OCCO4)nc(NC3CCCC3)c12 [Example 147, 4-(cyclopentylamino)-2-((8-(4-(oxetan-3-yl)piperazine-1-carbonyl)-2,3-dihydrobenzo[b][1,4]dioxin-5-yl)amino)-7H-pyrrolo[2,3-d]pyrimidin-5-carbonitrile]
